Measurements from patent publication US4977152A, “Novel tricyclic derivatives which are agonists of cholinergic receptors, and drugs in which they are present” (Societe Anonyme: Sanofi, priority 1986, dated 1990).
Where a name gives a salt, the structure may show the parent alone.

Assays:
[1] = target: T1, M1-type muscarinic cholinergic receptor (Rattus norvegicus, UniProt P08482); assay: Test for affinity for the M1-type muscarinic cholinergic receptor: displacement of [3H]pirenzepine on rat hippocampus homogenate; format: binding; conditions: for IC50: rat hippocampus homogenate, 1 nM [3H]PZ, 2 h at 4° C., pH 7.40; for r = (M2 /M1): ratio of IC50 M2 (3H-NMS, guinea-pig ileum) to IC50 M1 (3H-pirenzepine, rat hippocampus)
T1 sequence (P08482 1-460): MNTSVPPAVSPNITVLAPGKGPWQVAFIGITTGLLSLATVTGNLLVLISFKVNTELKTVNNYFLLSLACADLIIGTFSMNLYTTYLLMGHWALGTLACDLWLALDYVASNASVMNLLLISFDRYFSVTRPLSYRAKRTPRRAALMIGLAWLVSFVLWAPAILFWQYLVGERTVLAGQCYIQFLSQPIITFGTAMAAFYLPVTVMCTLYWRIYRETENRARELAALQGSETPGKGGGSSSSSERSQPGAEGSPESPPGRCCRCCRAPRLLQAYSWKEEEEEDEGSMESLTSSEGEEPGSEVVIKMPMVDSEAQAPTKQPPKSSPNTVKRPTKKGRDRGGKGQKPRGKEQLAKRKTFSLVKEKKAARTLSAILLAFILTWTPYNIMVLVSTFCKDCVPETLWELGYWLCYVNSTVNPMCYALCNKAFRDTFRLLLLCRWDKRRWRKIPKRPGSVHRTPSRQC
Text: (§1) The M1 -type receptors are concentrated in certain areas of the brain, such as the hippocampus, the cerebral cortex and the striatum, and also in the sympathetic ganglia. These binding sites can be selectively labeled with [^3 H]pirenzepine ([^3 H]PZ). The M2 -type receptors predominate in the heart and ileum and can be labeled with [^3 H]N-methylscopolamine ([^3 H]NMS). To determine the selectivity of our molecules towards the M1 and M2 sites, we studied their interaction in vitro with [^3 H]PZ and [^3 H]NMS bound with a high affinity to membranes of rat hippocampus and membranes of smooth muscle of guinea-pig ileum, respectively.
The interaction of the molecules with M1 -type muscarinic receptors was studied by in vitro measurement, on a homogenate of rat hippocampus, of the displacement of tritiated pirenzepine ([^3 H]PZ) from its specific binding sites. Aliquots (10 μl) of a 5% (w/v) homogenate of rat hippocampus in an Na2 HPO4 buffer (50 mM, pH 7.40) are incubated for 2 h at 4° C. in the presence of [^3 H]pZ ([…]; final concentration: 1 nM) and increasing concentrations of products to be studied. The final volume is 2 ml. The reaction is stopped by centrifugation for 10 min at 50,000 × g. After decantation and washing of the residues, the bound radioactivity is counted by liquid scintillation. The non-specific binding is determined in the presence of 10 μmol/l of atropine sulfate. The 50% inhibitory concentration (IC50) is determined graphically (Ref.: Watson J. D., Roeskoe W. R. and Yamamura H.1., Life Sci., 31, 2019-2029, 1982).
(§2) Table 4 indicates the affinities of the products of the invention for M1 and M2 receptors. The results are expressed as 50% inhibitory concentrations (IC50), i.e. the concentration (in μM) which causes a 50% displacement placement of the tritiated ligand bound to the membrane receptors. The IC50 for displacement of ^3 H-pirenzepine represents the affinity for the M1 receptor; the IC50 for displacement of 3H-NMS represents the affinity for the M2 receptor.

[2] = target: T2, M2-type muscarinic cholinergic receptor (Cavia porcellus, UniProt H0VRN8); assay: Test for affinity for the M2-type muscarinic cholinergic receptor: displacement of [3H]N-methylscopolamine on smooth muscle of guinea-pig ileum; format: binding; conditions: guinea-pig ileum smooth muscle homogenate, 0.3 nM [3H]NMS, 20 min at 30° C., pH 7.5
T2 construct: on a homogenate of smooth muscle of guinea-pig ileum; from tissue; host or cells: guinea-pig ileum smooth muscle homogenate
T2 sequence (H0VRN8 1-466): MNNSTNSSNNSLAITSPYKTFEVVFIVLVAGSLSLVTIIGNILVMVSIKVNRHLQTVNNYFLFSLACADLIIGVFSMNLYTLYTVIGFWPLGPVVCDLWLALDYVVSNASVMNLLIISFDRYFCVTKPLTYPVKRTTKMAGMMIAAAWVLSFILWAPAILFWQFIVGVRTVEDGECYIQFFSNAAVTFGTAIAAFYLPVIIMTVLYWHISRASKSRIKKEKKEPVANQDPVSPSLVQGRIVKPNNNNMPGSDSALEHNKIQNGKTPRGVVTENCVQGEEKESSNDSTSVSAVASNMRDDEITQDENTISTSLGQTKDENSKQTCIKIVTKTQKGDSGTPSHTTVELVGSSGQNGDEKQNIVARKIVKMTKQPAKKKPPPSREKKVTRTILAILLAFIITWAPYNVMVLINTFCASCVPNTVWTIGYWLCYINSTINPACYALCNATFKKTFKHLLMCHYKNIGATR
Text: as §1
The interaction with M2 -type muscarinic receptors was studied by in vitro measurement, on a homogenate of smooth muscle of guinea-pig ileum, of the displacement of tritiated N-methylscopolamine ([^3 H]NMS) from its specific binding sites. Aliquots (50 μl) of a 0.625% (w/v) homogenate of smooth muscle of guinea-pig ileum in MEPES buffer (20 mM) containing NaCl (100 mM) and MgCl2 (10 mM) (final pH: 7.5) are incubated for 20 min at 30° C. in the presence of [^3 H]NMS ([…]; final concentration: 0.3 nM) and increasing concentrations of products to be tested. The final volume is 1 ml. The reaction is stopped by centrifugation for 5 min at 15,000 × g. The non-specific binding is determined in the presence of 10 μmol/l of atropine sulfate (Ref.: Hammer R., Berrie C. P., Birdsall N. I. M., Burgen A. S. V. and Hulme E. C., Nature, 283, 90-92, 1980; Hulme E. C., Birdsall N.1.M., Burgen A. S. V. and Mettha P., Mol. pharmacol., 14, 737-750, 1978).
as §2

IC50 [1] | r = (M2 /M1) [1] | IC50 [2] | SMILES
0.15 µM | 24 | 3.6 µM | c1ccc2c(c1)CCCc1cc(NCCN3CCCCC3)nnc1-2 [SR 44694 A]
0.7 µM | 10 | 6.5 µM | CN(C)CCNc1cc2c(nn1)-c1cc(Cl)c(Cl)cc1CCC2 [SR 44696 A]
0.3 µM | 10 | 3 µM | CC(C)N(CCNc1cc2c(nn1)-c1cc([N+](=O)[O-])ccc1CCC2)C(C)C [SR 44697 A]
0.18 µM | 16 | 3 µM | Clc1cc2c(cc1Cl)-c1nnc(NCCN3CCCCC3)cc1CCC2 [SR 44705 A]
3.6 µM | 8 | 30 µM | CCCCN(CCCC)CCNc1cc2c(nn1)-c1cc(C)c(C)cc1CCC2 [SR 44706 A]
0.2 µM | 10 | 2 µM | CCN(CC)CCNc1cc2c(nn1)-c1cc(N)ccc1CCC2 [SR 95776 A, 10-Amino-3-(Z-diethylaminoethylamino)-6,7-dihydro-5H-benzocyclohepta[5,6-c]pyridazine dihydrochloride]
3 µM | 14 | 43 µM | Cc1cc2ccccc2c2nnc(NCCN3CCOCC3)cc12 [SR 96057 A, 5-3-(2-morpholinoethylamino)benzo[h]cinnoline dihydrochloride]

SMILES | IC50 [1] | r = (M2 /M1) [1] | IC50 [2]
CCN(CC)CCNc1cc2c(nn1)-c1cc(Cl)c(Cl)cc1CCC2.Cl.Cl [SR 44695 A, 9,10-Dichloro-3-(2-diethylaminoethylamino)-6,7-dihydro-5H-benzocyclohepta[5,6-c]pyridazine dihydrochloride] | 0.45 µM | 10 | 4.5 µM
CCN(CC)CCNc1cc2c(nn1)-c1cc(C)c(C)cc1CCCC2.Cl.Cl [SR 44703 A, 3-(2-Diethylaminoethylamino)-10,11-dimethyl-5,6,7,8-tetrahydrobenzocycloocta[5,6-c]pyridazine dihydrochloride] | 0.1 µM | 40 | 4 µM
Cl.Cl.O=[N+]([O-])c1cccc2c1CCCc1cc(NCCN3CCOCC3)nnc1-2 [SR 96100 A, 3-(2-Morpholinoethylamino)-8-nitro-6,7-dihydro-5H-benzocyclohepta[5,6-c]pyridazine dihydrochloride] | 0.4 µM | 110 | 44 µM
Cl.Cl.Fc1ccc2c(c1)CCCc1cc(NCCN3CCOCC3)nnc1-2 [SR 96108 A, 9-Fluoro-3 (2-morpholinoethylamino)-6,7-dihydro-5H-benzocyclohepta[5,6-c]pyridazine dihydrochloride] | 1 µM | 40 | 40 µM
